Biological target: bee venom PLA2 (Apis mellifera, UniProt P00630)
Format: biochemical
Conditions: pH 9

Sequence of bee venom PLA2 (P00630 34-167 limits assumed): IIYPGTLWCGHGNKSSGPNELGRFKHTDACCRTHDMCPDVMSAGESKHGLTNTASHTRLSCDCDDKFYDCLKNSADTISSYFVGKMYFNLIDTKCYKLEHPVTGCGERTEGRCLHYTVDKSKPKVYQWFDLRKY

SMILES	inhibition of the enzymatic activity of bee venom PLA2
CCCCC/C=C\C/C=C\CCCCCCCC(=O)O [linoleic acid, linoleic (cis,cis-Δ^9-,Δ^12-octadecadienoic) acid]	inhibit the enzymatic activity of bee venom PLA2 in a dose-dependent manner
CCCCCCCC/C=C\CCCCCCCC(=O)O [oleic acid, oleic (cis-Δ^9-octadecenoic) acid]	inhibit the enzymatic activity of bee venom PLA2 in a dose-dependent manner

From US20080096963A1, “Use Of A Fatty Acid For Preparing A Topical Composition For Allaying Inflammatory Reaction Due To Vennemous Hymenoptera Strings” (CEREP, priority 2004, published 2008)
